Columns and labels:
[1] = target: wild-type human cardiac sodium channel, hNav1.5 (Homo sapiens, UniProt Q14524); assay: Late INa screening assay (QPatch whole cell patch clamp, Tefluthrin-induced late current); type: cell-based; details: HEK293 hNav1.5, percent block of late INa
Procedure, shortened: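 HEK293 cells stably expressing hNav1.5 without beta subunits were whole-cell patch clamped at 23-25 °C, stepping from −120 to −20 mV for 250 ms at 0.1 Hz. Late current (240–265 ms) was induced with 10 μM Tefluthrin, and compounds were added typically at 0.3 or 1 μM. Percent block was taken against 0 Na baseline with rundown correction.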

[2] = target: hNav1.1 (SCN1A) (Homo sapiens, UniProt P35498); assay: Use-dependent inhibition of the CNS Nav1.1 sodium channel; type: cell-based; details: use-dependent block, 25 Hz, pulse 20, read-out: Nav1.1 UDB 25 Hz 10 uM
Procedure, shortened: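 HEK-293 cells stably expressing WT hNav1.1, automated whole-cell patch clamp at 23-25 °C with CsF-based internal and NaCl external solutions, pH 7.35. Compound applied twice, 200 s equilibration; block measured at pulse 20 of a 25 Hz train (0 mV, 20 ms) from −120 mV, as mean % inhibition versus compound-free.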

Sequence of wild-type human cardiac sodium channel, hNav1.5 (Q14524 whole entry): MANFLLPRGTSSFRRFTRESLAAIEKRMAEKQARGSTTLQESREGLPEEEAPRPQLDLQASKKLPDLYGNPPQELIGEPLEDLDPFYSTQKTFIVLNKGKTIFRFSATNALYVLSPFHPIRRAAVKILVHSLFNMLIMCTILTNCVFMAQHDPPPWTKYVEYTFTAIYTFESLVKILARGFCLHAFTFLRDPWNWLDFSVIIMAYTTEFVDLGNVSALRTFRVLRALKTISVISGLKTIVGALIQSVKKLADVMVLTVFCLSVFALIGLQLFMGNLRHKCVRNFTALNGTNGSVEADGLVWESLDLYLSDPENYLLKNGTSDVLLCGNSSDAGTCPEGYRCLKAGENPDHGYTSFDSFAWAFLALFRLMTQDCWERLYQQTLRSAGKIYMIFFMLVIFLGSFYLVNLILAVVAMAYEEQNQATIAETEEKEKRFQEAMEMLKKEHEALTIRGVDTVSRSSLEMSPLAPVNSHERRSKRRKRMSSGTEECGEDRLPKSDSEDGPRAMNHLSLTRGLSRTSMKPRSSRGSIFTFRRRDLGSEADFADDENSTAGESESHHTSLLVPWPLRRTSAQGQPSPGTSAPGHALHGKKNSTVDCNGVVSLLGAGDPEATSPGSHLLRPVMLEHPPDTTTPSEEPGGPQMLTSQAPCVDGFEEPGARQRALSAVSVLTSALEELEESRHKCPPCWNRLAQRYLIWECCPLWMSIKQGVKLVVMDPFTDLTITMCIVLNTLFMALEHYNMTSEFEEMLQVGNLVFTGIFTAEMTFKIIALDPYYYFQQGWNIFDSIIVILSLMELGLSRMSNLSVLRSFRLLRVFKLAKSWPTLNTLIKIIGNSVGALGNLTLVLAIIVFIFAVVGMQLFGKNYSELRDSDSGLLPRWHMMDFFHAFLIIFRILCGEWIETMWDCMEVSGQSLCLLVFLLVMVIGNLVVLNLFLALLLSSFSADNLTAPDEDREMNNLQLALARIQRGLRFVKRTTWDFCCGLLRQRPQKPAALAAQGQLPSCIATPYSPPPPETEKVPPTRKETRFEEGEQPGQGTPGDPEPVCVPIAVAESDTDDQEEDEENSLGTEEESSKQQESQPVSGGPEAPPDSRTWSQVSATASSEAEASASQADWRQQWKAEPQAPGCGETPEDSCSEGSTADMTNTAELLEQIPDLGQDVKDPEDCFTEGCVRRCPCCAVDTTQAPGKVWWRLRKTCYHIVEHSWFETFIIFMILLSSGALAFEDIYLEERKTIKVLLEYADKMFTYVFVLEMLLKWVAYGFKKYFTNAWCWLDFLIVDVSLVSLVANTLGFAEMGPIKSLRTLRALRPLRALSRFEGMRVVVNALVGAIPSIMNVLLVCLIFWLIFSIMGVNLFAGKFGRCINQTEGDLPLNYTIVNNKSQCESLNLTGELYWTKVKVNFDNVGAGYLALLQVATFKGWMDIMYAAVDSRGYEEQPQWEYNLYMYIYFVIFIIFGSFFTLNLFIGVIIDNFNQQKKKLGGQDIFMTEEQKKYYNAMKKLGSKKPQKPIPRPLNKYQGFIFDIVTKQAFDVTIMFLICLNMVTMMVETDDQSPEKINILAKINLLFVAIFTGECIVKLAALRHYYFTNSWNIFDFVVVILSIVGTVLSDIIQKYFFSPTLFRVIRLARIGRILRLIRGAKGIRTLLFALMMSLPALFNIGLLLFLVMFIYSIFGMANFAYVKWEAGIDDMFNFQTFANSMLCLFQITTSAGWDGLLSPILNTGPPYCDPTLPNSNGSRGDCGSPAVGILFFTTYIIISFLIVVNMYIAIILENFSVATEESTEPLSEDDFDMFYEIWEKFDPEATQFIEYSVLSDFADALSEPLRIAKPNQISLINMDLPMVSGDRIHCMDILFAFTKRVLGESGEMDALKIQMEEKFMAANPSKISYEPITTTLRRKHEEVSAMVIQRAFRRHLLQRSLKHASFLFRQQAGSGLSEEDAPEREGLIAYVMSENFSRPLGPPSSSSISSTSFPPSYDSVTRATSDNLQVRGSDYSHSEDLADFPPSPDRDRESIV

`CC(=O)N1CCOC[C@H]1COc1noc2ccc(-c3ccc(OC(F)(F)F)cc3)cc12` [Example 115, (S)-1-(3-(((5-(4-(trifluoromethoxy)phenyl)benzo[d]isoxazol-3-yl)oxy)methyl)morpholino)ethan-1-one] gave an inhibition at 0.3 µM [1] of 23.5%, an inhibition at 1 µM [1] of 56.7% and an inhibition at 10 µM [2] of 76.4%.

With `CC(C)(C)OC(=O)COc1noc2ccc(-c3ccc(OC(F)(F)F)cc3)cc12` [Example 157, tert-butyl 2-((5-(4-(trifluoromethoxy)phenyl)benzo[d]isoxazol-3-yl)oxy)acetate] the inhibition at 1 µM [1] was 36.9% and the inhibition at 10 µM [2] was < 5%.

In the case of `CC(COc1noc2ccc(-c3ccc(OC(F)(F)F)cc3)cc12)n1cccn1` (stereo not drawn) [Example 68, 3-(2-(1H-pyrazol-1-yl)propoxy)-5-(4-(trifluoromethoxy)phenyl)benzo[d]isoxazole], the inhibition at 0.3 µM [1] is reported as 35.8%, the inhibition at 1 µM [1] is reported as 62.2% and the inhibition at 10 µM [2] is reported as < 5%.

For `FC(F)(F)Oc1cccc(-c2ccc3onc(OCc4ncccn4)c3c2)c1` [Example 10, 3-(pyrimidin-2-ylmethoxy)-5-(3-(trifluoromethoxy)phenyl)benzo[d]isoxazole], the inhibition at 1 µM [1] was 41% and the inhibition at 10 µM [2] was < 5%.

In the case of `CN1CCN(c2noc3ccc(-c4ccc(OC(F)(F)F)cc4)cc23)CC1` [Example 127, 3-(4-methylpiperazin-1-yl)-5-(4-(trifluoromethoxy)phenyl)benzo[d]isoxazole], the inhibition at 1 µM [1] is reported as 37.4% and the inhibition at 10 µM [2] is reported as 82.8%.
